Test results from PubChem BioAssay AID1117349.
The source made the active and inactive calls. How the calls were made is not given here.

Test system: HeLa cells, increased 2N DNA content (cell cycle)
Experiment: HeLa 2N DNA content increase, dose response, cell-based, IC50 (AID 1117349)

| IC50 | SMILES |
| --- | --- |
| 3.39 µM | C[n+]1c2cc(N)ccc2cc2ccc(N)cc21 (tested in a mixture with another compound) |
| > 10 µM (inactive) | CCCCCCCCCCCCCC[N+](C)(C)C |
| > 10 µM (inactive) | CCCCCCCCCCCC(=O)[O][Sn]([CH2]CCC)([CH2]CCC)[O]C(=O)CCCCCCCCCCC |

| SMILES | IC50 |
| --- | --- |
| Cc1ccc([N+](=O)[O-])[c]2c1[O][Hg]2 | > 10 µM (inactive) |
